Measured values: patent US8476064B2, “Inhibition assay method and device for detection of antibiotics” (Charm Sciences, Inc., priority 2006, dated 2013)

Key:
B.st. spores [1] = experiment: Antibiotic detection test in spiked milk, borate/succinate culture of Example 6 (Table 4); type: cell-based, Bacillus (Geobacillus) Stearothermophilus; design: key to Color 1 / Color 2: Color result 1 and 2 is a negative result; Color result 1 and 2 is a negative result; 3 is a borderline result; 4 and 5 is a positive result; 4 and 5 is a positive result; details: for % Pos (Color 2) / Color 2: after 16 hours at room temperature; for % Pos (Color 1) / Color 1: immediately after test completion
Procedure: BCP/Borate/Succinate Solution was prepared by adding 3.8 grams of Borate and 6 grams Succinate to 100 mL of reverse osmosis/deionized water (RO/DI Water) in 125 mL flask. 50 milligrams of BCP was added to a 50 mL conical tube and 5 mL of Borate/Succinate solution was added to the 50 milligrams BCP and mixed.
To prepare media 5 grams glucose and 1 gram Mueller Hinton Broth was dissolved in 100 mL RO/DI Water. 1.2 mL of a 0.01 mg/mL solution of trimethoprim in RO/DI Water was prepared and added to the media. A 20 mL of BCP/Borate/Succinate was added to the media and the media was sterile filtered through a 0.45 micron filter and then cooled to 4 degrees C.
Agar was prepared by combining 0.3 grams Difco Bacto-Agar (Item #0140-01), 0.225 NaCl and 17.485 RO/DI Water. The mixture was heated to 95° C. and then removed from the heat and allowed to cool to 75° C. Next 6 mL of media (prepared as described above with BCP/Tris) was added to the agar and mixed for 5 minutes. The mixture was cooled to 57° C. and 1 mL spore solution (concentration of 1 billion cfu/mL) was added and mixed together for 5 minutes. 0.200 mL was dispensed into the bottom of each of the vials.
In test operation 200 microliters of various milk sample, spiked with known concentrations of antibiotics, were pipetted into test vials and incubated for the prescribed time (in this test 2 hours 10 minutes) and prescribed temperature (64 degrees C.+/−2 degrees C.). Incubation was in the Charm I Inctronic incubator. Results were recorded immediately after test completion (Color 1) and after being left at room temperature for 16 hours (Color 2). Results listed are in parts per billion (ppb). 4 samples were run at each concentrations except for raw negative milk (16 samples) and 3 ppb pen G (2 samples) and amoxicillin (2 samples). Abbreviations are penicillin G (PenG); sulfamethazine (SMZ); sulfadimethoxine (SDM); tylosin (TY); gentamicin (G); oxytetracycline (OT); pirlimycin (Pirl); amoxicillin (Amox); ampicillin (Amp); cloxacillin (Clox); ceftiofur sodium (Ceft); cephaprin (Ceph); tilmicosin (Til); sulfadoxine (SDN); neomycin (Neo). Color result 1 and 2 is a negative result, 3 is a borderline result and 4 and 5 is a positive result.

B.st. spores [2] = experiment: Antibiotic detection test in spiked milk, Trizma/succinate culture of Example 7 (Table 5); type: cell-based, Bacillus (Geobacillus) Stearothermophilus; details: for 16 hr Result / % Pos (16 hr Result): 16 hours later; for % Pos (Result) / Result: immediately after test completion
Procedure: A Trizma/Succinate solution was prepared by adding 2.5 grams Trizma Base and 6 grams Succinate to 100 mL of reverse osmosis/deionized water (RO/DI Water) in a 125 mL flask. 40 milligrams of BCP (see example 1 for BCP preparation) was then added to a 50 mL conical tube and 25 mL of the Trizma/Succinate solution was added to the 40 milligrams BCP and mixed.
The media was prepared by dissolving 5 grams glucose and 1 gram Mueller Hinton Broth in 100 mL RO/DI Water. 1.2 mL of a 0.01 mg/mL solution of trimethoprim in RO/DI water was added to the media. 20 mL of the BCP/Trizma/Succinate preparation was added to the media and the media was sterile filtered through a 0.45 micron filter and cooled to 4 degrees C.
0.3 grams Difco Bacto-Agar (Item #0140-01), 0.225 NaCl and 17 mL of RO/DI water was combined and mixed and heated the mixture to 95° C. The mixture was removed from the heat and allowed it to cool to 75° C. and then 6 mL media (with BCP/Tris) was added and mixed for 5 minutes. The mixture was cooled to 57° C. and 2 mL spore (concentration of 1 billion cfu/mL) was added and mixed for 5 minutes. 0.200 mL was dispensed into the bottom of each vial.
In test operation 200 microliters of various milk samples, spiked with known concentrations of antibiotics, were pipetted into vials and incubated for the prescribed time (in this test 2 hours 30 minutes) and prescribed temperature (64 degrees C.+/−2 degrees C.). Results were recorded immediately after test completion and 16 hours later. Incubation was in various Charm Inctronic I incubators. Concentrations listed are in parts per billion (ppb). 4 samples were run at each concentration except 16 negative samples were run and 2 samples each for 3 ppb pen G and amoxicillin. Abbreviations are pencillin G (PenG); sulfamethazine (SMZ); sulfadimethoxine (SDM); tylosin (TY); gentamicin (G); oxytetracycline (OT); pirlimycin (Pirl); amoxicillin (Amox); ampicillin (Amp); cloxacillin (Clox); ceftiofur sodium (Ceft); cephaprin (Ceph); tilmicosin (Til); sulfadoxine (SDN); neomycin (Neo).

With `CC1(C)S[C@@H]2[C@H](NC(=O)[C@H](N)c3ccc(O)cc3)C(=O)N2[C@H]1C(=O)O` [Amox, amoxicillin] the “% Pos (Color 2)” value (B.st. spores [1]; milk spiked at 6 ppb) was 100%, the “Color 2” value (B.st. spores [1]; milk spiked at 6 ppb) was 5 and the “% Pos (Color 1)” value (B.st. spores [1]; milk spiked at 6 ppb) was 100%. The “Color 1” value (B.st. spores [1]; milk spiked at 6 ppb) was 5, the “16 hr Result” value (B.st. spores [2]; milk spiked at 6 ppb) was “Pos” and the “% Pos (16 hr Result)” value (B.st. spores [2]; milk spiked at 6 ppb) was 100%. The “% Pos (Result)” value (B.st. spores [2]; milk spiked at 6 ppb) was 100% and the Result (B.st. spores [2]; milk spiked at 6 ppb) was “Pos”.

For `CC1(C)S[C@@H]2[C@H](NC(=O)[C@H](N)c3ccccc3)C(=O)N2[C@H]1C(=O)O` [Amp, ampicillin], the “% Pos (Color 2)” value (B.st. spores [1]; milk spiked at 5 ppb) was 100%, the “Color 2” value (B.st. spores [1]; milk spiked at 5 ppb) was 4 and the “% Pos (Color 1)” value (B.st. spores [1]; milk spiked at 5 ppb) was 100%. For the same compound, the “Color 1” value (B.st. spores [1]; milk spiked at 5 ppb) was 5, the “16 hr Result” value (B.st. spores [2]; milk spiked at 5 ppb) was “Pos” and the “% Pos (16 hr Result)” value (B.st. spores [2]; milk spiked at 5 ppb) was 100%. The “% Pos (Result)” value (B.st. spores [2]; milk spiked at 5 ppb) was 100% and the Result (B.st. spores [2]; milk spiked at 5 ppb) was “Pos”.

`CO/N=C(\C(=O)N[C@@H]1C(=O)N2C(C(=O)O)=C(CSC(=O)c3ccco3)CS[C@H]12)c1csc(N)n1` [Ceft, ceftiofur sodium] was tested, and the “% Pos (Color 2)” value (B.st. spores [1]; milk spiked at 50 ppb) was 0%, the “Color 2” value (B.st. spores [1]; milk spiked at 50 ppb) was 1 and the “% Pos (Color 1)” value (B.st. spores [1]; milk spiked at 50 ppb) was 0%. For the same compound, the “Color 1” value (B.st. spores [1]; milk spiked at 50 ppb) was 1, the “% Pos (Color 2)” value (B.st. spores [1]; milk spiked at 100 ppb) was 0% and the “Color 2” value (B.st. spores [1]; milk spiked at 100 ppb) was 2. For the same compound, the “% Pos (Color 1)” value (B.st. spores [1]; milk spiked at 100 ppb) was 0%, the “Color 1” value (B.st. spores [1]; milk spiked at 100 ppb) was 2 and the “16 hr Result” value (B.st. spores [2]; milk spiked at 50 ppb) was “Pos”. For the same compound, the “% Pos (16 hr Result)” value (B.st. spores [2]; milk spiked at 50 ppb) was 100%, the “% Pos (Result)” value (B.st. spores [2]; milk spiked at 50 ppb) was 100% and the Result (B.st. spores [2]; milk spiked at 50 ppb) was “Pos”. For the same compound, the “16 hr Result” value (B.st. spores [2]; milk spiked at 100 ppb) was “Pos”, the “% Pos (16 hr Result)” value (B.st. spores [2]; milk spiked at 100 ppb) was 100% and the “% Pos (Result)” value (B.st. spores [2]; milk spiked at 100 ppb) was 100%. For the same compound, the Result (B.st. spores [2]; milk spiked at 100 ppb) was “Pos”.

`CC(=O)OCC1=C(C(=O)O)N2C(=O)[C@@H](NC(=O)CSc3ccncc3)[C@H]2SC1` [Ceph, cephaprin] was tested, and the “% Pos (Color 2)” value (B.st. spores [1]; milk spiked at 10 ppb) was 100%, the “Color 2” value (B.st. spores [1]; milk spiked at 10 ppb) was 5 and the “% Pos (Color 1)” value (B.st. spores [1]; milk spiked at 10 ppb) was 100%. For the same compound, the “Color 1” value (B.st. spores [1]; milk spiked at 10 ppb) was 5, the “16 hr Result” value (B.st. spores [2]; milk spiked at 10 ppb) was “Pos” and the “% Pos (16 hr Result)” value (B.st. spores [2]; milk spiked at 10 ppb) was 100%. The “% Pos (Result)” value (B.st. spores [2]; milk spiked at 10 ppb) was 100% and the Result (B.st. spores [2]; milk spiked at 10 ppb) was “Pos”.
